This assay deals with BDF1 mice, B16 melanoma ip, median survival T/C. Put plainly: NCI In Vivo Anticancer Drug Screen. Data for tumor model B16 Melanoma (intraperitoneal) in B6D2F1 (BDF1) mice. As to conditions: endpoint: median survival time, higher = longer survival. A digest of the protocol:
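Compounds were tested in mice carrying transplantable tumors. Survival or tumor size was recorded, and each value is the treated-group measurement (T) divided by that of the vehicle-treated control group (C).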

Where [1] appears, read: dose: 12.5 mg/kg/injection, schedule: Q01DX009 (ip), vehicle: saline with Tween-80.
[2] abbreviates: dose: 25.0 mg/kg/injection, schedule: Q01DX009 (ip), vehicle: saline with Tween-80.
The mark [3] stands for this setting: dose: 12.5 mg/kg/injection, schedule: Q01DX009 (ip), vehicle: saline.
Setting [4] is: dose: 25.0 mg/kg/injection, schedule: Q01DX009 (ip), vehicle: saline.
Where [5] appears, read: dose: 100.0 mg/kg/injection, schedule: Q01DX009 (ip), vehicle: saline.
[6] abbreviates: dose: 6.25 mg/kg/injection, schedule: Q01DX009 (ip), vehicle: saline with Tween-80.
Where [7] appears, read: dose: 50.0 mg/kg/injection, schedule: Q01DX009 (ip), vehicle: saline.
Where [8] appears, read: dose: 100.0 mg/kg/injection, schedule: Q01DX009 (ip), vehicle: saline with Tween-80.
The mark [9] stands for this setting: dose: 200.0 mg/kg/injection, schedule: Q01DX009 (ip), vehicle: saline with Tween-80.
[10] abbreviates: dose: 1.56 mg/kg/injection, schedule: Q01DX009 (ip), vehicle: Klucel (hydroxypropylcellulose) (HPC).
The mark [11] stands for this setting: dose: 100.0 mg/kg/injection, schedule: Q01DX009 (ip), vehicle: Klucel (hydroxypropylcellulose) (HPC).
The mark [12] stands for this setting: dose: 200.0 mg/kg/injection, schedule: Q01DX009 (ip), vehicle: Klucel (hydroxypropylcellulose) (HPC).
Setting [13] is: dose: 400.0 mg/kg/injection, schedule: Q01DX009 (ip), vehicle: saline with Tween-80.
Setting [14] is: dose: 100.0 mg/kg/injection, schedule: Q04DX003 (ip), vehicle: Klucel (hydroxypropylcellulose) (HPC).
Setting [15] is: dose: 200.0 mg/kg/injection, schedule: Q04DX003 (ip), vehicle: Klucel (hydroxypropylcellulose) (HPC).
[16] abbreviates: dose: 400.0 mg/kg/injection, schedule: Q04DX003 (ip), vehicle: Klucel (hydroxypropylcellulose) (HPC).

Each structure is given as a SMILES string. “And” between values parts separate entries of the source, which are not always exact repeats. Equal entries are not always repeated. Toxic doses and inconclusive results are not listed.

On to `O=[N+]([O-])c1cc(Cl)cc2c1nc(NCCO)c1ccccc12`, for which the T/C reads like this: under setting [1], 97 % of control; under setting [2], 97 % of control.
On to `O=C(OCc1ccccc1)C(Cl)(Cl)Cl`, for which the T/C (dose: 100.0 mg/kg/injection, schedule: Q04DX003 (ip), vehicle: saline with Tween-80) was 105 % of control; the T/C (dose: 200.0 mg/kg/injection, schedule: Q04DX003 (ip), vehicle: saline with Tween-80) was 100 % of control; the T/C (dose: 400.0 mg/kg/injection, schedule: Q04DX003 (ip), vehicle: saline with Tween-80) was 102 % of control.
For `C=CCOCC(O)CNCCCOC` (configuration not stated), the T/C is 102 % of control (dose: 6.25 mg/kg/injection, schedule: Q01DX009 (ip), vehicle: saline); 98 % of control under setting [3]; 98 % of control under setting [4].
`C[C@@H]1CCC[C@@H](NC(=O)N(CCCl)N=O)C1`: the T/C is, setting by setting: (dose: 4.7 mg/kg/injection, schedule: Q01DX009 (ip), vehicle: Klucel (hydroxypropylcellulose) (HPC)) 103 % of control; (dose: 18.7 mg/kg/injection, schedule: Q01DX009 (ip), vehicle: Klucel (hydroxypropylcellulose) (HPC)) 210 % of control; (dose: 18.75 mg/kg/injection, schedule: Q01DX009 (ip), vehicle: Klucel (hydroxypropylcellulose) (HPC)) 192 % of control; (dose: 37.5 mg/kg/injection, schedule: Q01DX009 (ip), vehicle: Klucel (hydroxypropylcellulose) (HPC)) 103 % of control and 229 % of control.
Turning to `CC(=O)NCCCCCCNC(C)=O`, the T/C under setting [5] was 101 % of control; the T/C (dose: 200.0 mg/kg/injection, schedule: Q01DX009 (ip), vehicle: saline) is 105 % of control; the T/C (dose: 400.0 mg/kg/injection, schedule: Q01DX009 (ip), vehicle: saline) was 87 % of control; the T/C (dose: 800.0 mg/kg/injection, schedule: Q01DX009 (ip), vehicle: saline) was 105 % of control.
As to `CCCCCCCCCCCCCCCC(=O)N(CCCN(C)C)CCCN(CCCN(C)C)C(=O)CCCCCCCCCCCCCCC`, the T/C runs as follows: (dose: 1.56 mg/kg/injection, schedule: Q01DX009 (ip), vehicle: water) 106 % of control; (dose: 3.13 mg/kg/injection, schedule: Q01DX009 (ip), vehicle: water) 101 % of control; (dose: 6.25 mg/kg/injection, schedule: Q01DX009 (ip), vehicle: water) 92 % of control; (dose: 12.5 mg/kg/injection, schedule: Q01DX009 (ip), vehicle: water) 87 % of control.
Regarding `O=C(CCN1CC1)OCCOC(=O)CCN1CC1`, the T/C is, setting by setting: (dose: 1.5 mg/kg/injection, schedule: Q01DX009 (ip), vehicle: saline) 118 % of control; (dose: 3.0 mg/kg/injection, schedule: Q01DX009 (ip), vehicle: saline) 110 % of control.
With `CC(=O)Nc1ccc(S(=O)(=O)N/N=C\c2ccc(Cl)c(Cl)c2)cc1`, the T/C under setting [6] is 111 % of control, the T/C under setting [1] is 105 % of control and the T/C under setting [2] is 117 % of control.
Consider `CCC(=O)NC1=C(N2CC2)C(=O)C(NC(=O)CC)=C(N2CC2)C1=O`, for which the T/C reads like this: (dose: 0.5 mg/kg/injection, schedule: Q01DX009 (ip), vehicle: saline) 107 % of control; (dose: 1.0 mg/kg/injection, schedule: Q01DX009 (ip), vehicle: saline) 107 % of control; (dose: 2.0 mg/kg/injection, schedule: Q01DX009 (ip), vehicle: saline) 113 % of control.
Consider `Cc1c(Cl)cccc1NC(=O)c1cccc([N+](=O)[O-])c1`, for which the T/C is 95 % of control (dose: 75.0 mg/kg/injection, schedule: Q01DX009 (ip), vehicle: Klucel (hydroxypropylcellulose) (HPC)); 87 % of control (dose: 150.0 mg/kg/injection, schedule: Q01DX009 (ip), vehicle: Klucel (hydroxypropylcellulose) (HPC)); 91 % of control (dose: 300.0 mg/kg/injection, schedule: Q01DX009 (ip), vehicle: Klucel (hydroxypropylcellulose) (HPC)).
Consider `NC(=O)c1ncc[nH]c1=O`, for which the T/C is 118 % of control under setting [7] and 124 % of control under setting [5].
Take `CC(NC(=O)C(C)NC(=O)OC(C)(C)C)C(=O)O` (configuration not stated): the T/C was 92 % of control under setting [2]; 94 % of control (dose: 50.0 mg/kg/injection, schedule: Q01DX009 (ip), vehicle: saline with Tween-80); 93 % of control under setting [8]; 92 % of control under setting [9].
Take `COc1cc(C=Nc2cccc(Br)c2)ccc1N(CCCl)CCCl`: the T/C was 113 % of control (dose: 0.8 mg/kg/injection, schedule: Q01DX009 (ip), vehicle: saline with Tween-80); 113 % of control under setting [10]; 115 % of control (dose: 3.12 mg/kg/injection, schedule: Q01DX009 (ip), vehicle: Klucel (hydroxypropylcellulose) (HPC)); 164 % of control under setting [6]; 163 % of control (dose: 12.5 mg/kg/injection, schedule: Q01DX009 (ip), vehicle: Klucel (hydroxypropylcellulose) (HPC)); 158 % of control under setting [1].
For `Nc1ncnc2sc3c(c12)CCCC3`, the T/C by setting is: under setting [11], 100 % of control; under setting [12], 101 % of control; (dose: 400.0 mg/kg/injection, schedule: Q01DX009 (ip), vehicle: Klucel (hydroxypropylcellulose) (HPC)) 110 % of control.
Turning to `NNC(=O)CCC(=O)NN`, the T/C by setting is: under setting [8], 102 % of control; under setting [9], 104 % of control; under setting [13], 93 % of control.
Turning to `CCOC(=O)c1c(NC(=O)CCC(=O)Nc2sc(C)c(C)c2C(=O)OCC)sc(C)c1C`, the T/C runs as follows: (dose: 0.09 mg/kg/injection, schedule: Q01DX009 (ip), vehicle: Klucel (hydroxypropylcellulose) (HPC)) 100 % of control; (dose: 0.19 mg/kg/injection, schedule: Q01DX009 (ip), vehicle: Klucel (hydroxypropylcellulose) (HPC)) 95 % of control; (dose: 0.39 mg/kg/injection, schedule: Q01DX009 (ip), vehicle: Klucel (hydroxypropylcellulose) (HPC)) 100 % of control; (dose: 0.78 mg/kg/injection, schedule: Q01DX009 (ip), vehicle: Klucel (hydroxypropylcellulose) (HPC)) 89 % of control; under setting [10], 95 % of control.
For the compound `COC(=O)C1C2CC(C3OC23)C1C(=O)OC` (configuration not stated), the T/C runs as follows: under setting [14], 94 % of control; under setting [15], 100 % of control; under setting [16], 96 % of control.
Consider `CCOC(=O)C(C=O)(NC(=O)c1ccccc1)OCC` (configuration not stated), for which the T/C by setting is: under setting [8], 102 % of control; under setting [9], 97 % of control; under setting [13], 100 % of control.
`CCCCCCC(=O)CCCC(C)CCCC(C)C` (configuration not stated): the T/C was 91 % of control under setting [11]; 105 % of control under setting [14]; 88 % of control under setting [12]; 94 % of control under setting [15]; 88 % of control under setting [16].
On to `O=C(O)c1ccc(OC(F)(F)C(F)Cl)cc1` (configuration not stated), for which the T/C reads like this: (dose: 25.0 mg/kg/injection, schedule: Q01DX009 (ip), vehicle: Klucel (hydroxypropylcellulose) (HPC)) 106 % of control; (dose: 50.0 mg/kg/injection, schedule: Q01DX009 (ip), vehicle: Klucel (hydroxypropylcellulose) (HPC)) 100 % of control; under setting [11], 106 % of control.
As to `CCOC(=O)c1[nH]c(C)nc1/N=N/N(C)C`, the T/C by setting is: under setting [3], 111 % of control; under setting [4], 110 % of control; under setting [7], 111 % of control; under setting [5], 123 % of control.

The record behind these values is PubChem BioAssay AID192 (DTP/NCI, 2004).
